# Experimental data: ChEMBL document CHEMBL4840381, “BRD9 Bifunctional Degraders for Treating Cancer” (ACS Med Chem Lett, 2021)
# Molecular target: Protein cereblon/Bromodomain-containing protein 9 (Homo sapiens, UniProt Q9H8M2+Q96SW2)
# Test: Induction of CRBN-mediated GFP-fused BRD9 (unknown origin) degradation expressed in HEK293-A cells incubated for 24 hrs by flow cytometric analysis
# Format: cell-based
# Protein cereblon/Bromodomain-containing protein 9, sequence (Q9H8M2 whole entry, the tested form may be a part): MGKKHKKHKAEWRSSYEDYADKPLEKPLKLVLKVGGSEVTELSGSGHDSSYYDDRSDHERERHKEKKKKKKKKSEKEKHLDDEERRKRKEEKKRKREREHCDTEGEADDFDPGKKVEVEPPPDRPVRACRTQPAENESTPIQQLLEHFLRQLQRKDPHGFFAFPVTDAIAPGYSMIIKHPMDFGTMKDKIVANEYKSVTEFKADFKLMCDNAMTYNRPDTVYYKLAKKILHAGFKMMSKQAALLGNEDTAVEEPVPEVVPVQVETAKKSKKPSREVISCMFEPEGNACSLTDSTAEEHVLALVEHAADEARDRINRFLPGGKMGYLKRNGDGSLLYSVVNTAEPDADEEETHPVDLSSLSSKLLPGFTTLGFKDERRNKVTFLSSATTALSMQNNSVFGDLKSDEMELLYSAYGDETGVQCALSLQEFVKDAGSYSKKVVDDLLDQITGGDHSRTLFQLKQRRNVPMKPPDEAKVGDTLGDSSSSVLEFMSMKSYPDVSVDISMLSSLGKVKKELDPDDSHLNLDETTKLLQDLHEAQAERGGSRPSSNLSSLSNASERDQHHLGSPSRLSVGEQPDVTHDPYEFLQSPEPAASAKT
# Protein cereblon/Bromodomain-containing protein 9, sequence (Q96SW2 whole entry, the tested form may be a part): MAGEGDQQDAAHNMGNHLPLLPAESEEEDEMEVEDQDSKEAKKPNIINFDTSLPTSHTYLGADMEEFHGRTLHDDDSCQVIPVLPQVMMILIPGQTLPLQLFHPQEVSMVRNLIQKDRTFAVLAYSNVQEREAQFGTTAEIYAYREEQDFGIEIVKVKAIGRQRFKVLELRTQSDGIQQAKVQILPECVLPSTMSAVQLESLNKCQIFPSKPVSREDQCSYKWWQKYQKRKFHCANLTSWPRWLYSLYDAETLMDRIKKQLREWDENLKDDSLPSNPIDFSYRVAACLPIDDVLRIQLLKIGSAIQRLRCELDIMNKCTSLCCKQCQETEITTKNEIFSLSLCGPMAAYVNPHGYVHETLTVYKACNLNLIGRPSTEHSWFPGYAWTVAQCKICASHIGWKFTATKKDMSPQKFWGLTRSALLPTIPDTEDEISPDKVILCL
row,SMILES,DC50
1,COc1cc(-c2cn(C)c(=O)c(C)c2C)cc(OC)c1CCN1CCC(OC2CCN(C(=O)c3ccc(Cl)c(N4CCC(=O)NC4=O)c3)CC2)CC1,1 nM
2,CCCCn1cc(-c2ccc(OC3CCN(CC4CCN(C(=O)c5ccc(Cl)c(N6CCC(=O)NC6=O)c5)CC4)CC3)c(OC)c2)c2ccncc2c1=O,1 nM
3,CCCCn1cc(-c2cc(OC)c(OC3CCN(CC4CCN(C(=O)c5ccc(Cl)c(N6CCC(=O)NC6=O)c5)CC4)CC3)c(OC)c2)c2ccncc2c1=O,1 nM
4,CCCCn1cc(-c2ccc(O[C@H]3CCN(CC4CCN(C(=O)c5ccc(OC)c(N6CCC(=O)NC6=O)c5)CC4)C[C@@H]3F)c(OC)c2)c2ccncc2c1=O,1 nM
5,CCCCn1cc(-c2cc(F)c(O[C@H]3CCN(CC4CCN(C(=O)c5ccc(OC)c(N6CCC(=O)NC6=O)c5)CC4)C[C@@H]3F)c(F)c2)c2ccncc2c1=O,1 nM
6,COc1cc(-c2cn(C)c(=O)c3cnccc23)cc(OC)c1CCN1CCC(OC2CCN(C(=O)c3ccc(Cl)c(N4CCC(=O)NC4=O)c3)CC2)CC1,1 nM
